From article PMC7317715, “Discovery of a novel fluorescent chemical probe suitable for evaluation of neuropilin‐1 binding of small molecules” (Drug Development Research, 2020)
Read-outs that look alike come from different tables or passages of the source. Bridge positions count the residues as written; N and C are the ends. Peptide text beside a SMILES is read from it.

Legend:
NRP1 [1] = system: NRP1; design: method as in Powell et al., 2018; details: ref Powell et al., 2018; cited from earlier work
NRP1 b1 [2] = target: T1, NRP1 b1 (Homo sapiens, UniProt O14786); test: FP competition experiment with DS108 probe; type: binding; details: for IC50: FP competition, DS108 0.75 μM, NRP1 b1 7.5 μM, PBS‐P buffer; for Ki: calculated from FP competition IC50 using kinetic equations (Nikolovska‐Coleska et al., 2004)
T1 construct: Ligands were evaluated against the NRP1‐b1 domain
T1 sequence (O14786 275-424 limits assumed): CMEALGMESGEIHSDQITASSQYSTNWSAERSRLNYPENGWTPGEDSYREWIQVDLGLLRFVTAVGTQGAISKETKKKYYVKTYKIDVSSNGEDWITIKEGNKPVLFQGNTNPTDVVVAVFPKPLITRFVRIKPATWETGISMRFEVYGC
Protocol: Competition experiments: FP samples were prepared in the following order—ligand in PBS‐P buffer (20 μl), NRP1‐b1 protein ([…], 20 μl) in PBS‐P buffer, and DS108 probe (1,500 nM, 40 μl) in PBS‐P buffer. FP was measured and normalized to experiment controls (buffer + probe, buffer + probe + protein) using a BMG Labtech PHERAstar® plate reader (filter settings: 485 nm [excitation] and 520 nm [emission]). Background FP was blanked using a PBS‐P buffer only control.
Data processing: raw data were processed using OriginPro curve fitting software to obtain the IC50s and error values shown. A dose–response curve fitting model was utilized for the competition experiments. A web based IC50‐to‐Ki converter that computes Ki values from experimentally determined IC50 values was employed (Cer, Mudunuri, Stephens, & Lebeda, 2009) (https://bioinfo-abcc.ncifcrf.gov/IC50_Ki_Converter/index.php) Each experiment was conducted in triplicate and repeated two times. The statistical reproducibility of this assay was evaluated using the z factor equation (Scheme 2).

NRP1 [3] = details: NRP1 inhibition using bt‐VEGF165 binding; ref Jia et al., 2006; read-out: Literature IC50; cited from earlier work
NRP1‐b1 domain = target: T2, NRP1‐b1 domain (Homo sapiens, UniProt O14786); test: SPR binding of fluorescent probes to immobilised NRP1-b1; details: for Kd: NRP1‐b1 on CM5 chip, 3% DMSO in PBS‐P, 1:1 binding model, read-out: KD (μM, affinity); for Observed Rmax (% of theoretical): experimentally observed Rmax as percentage of theoretical Rmax (quality control)
T2 construct: Ligands were evaluated against the NRP1‐b1 domain
T2 sequence (O14786 275-424 limits assumed): T1 sequence (O14786 275-424 limits assumed)
Protocol: All SPR analysis was performed on a BIAcore T200 system using series S CM5 sensor chips. The […] SPR is effectively a stop‐flow instrument, and dissociation from the immobilized protein is initiated by the absence of analyte (ligand) when buffer alone is perfused, this setup allows the determination of on and off rates and equilibrium binding constants. Relatively high DMSO concentrations are normal for SPR experiments to limit solubility problems and minimize nonspecific aggregation. Extensive DMSO controls are included and automatically subtracted from the sensorgrams. Sensorgrams were double referenced by subtracting the response on a reference flow cell and a blank sample. Ligands were evaluated against the NRP1‐b1 domain. NRP1‐b1 was covalently attached to a CM5 chip via amine coupling (Powell et al., 2018) with a surface density of 2,000–3,000 RU. Binding of novel fluorescent probes (0.4–100 μM) were analyzed by multicycle sequential injections (30–120 s association time) followed by undisturbed dissociation (30–60 s). A regeneration step was not used. Peptide stocks were dissolved in dimethyl sulfoxide (DMSO), and the final sample solutions for kinetic affinity experiments contained 3% DMSO in 1× phosphate‐buffered saline P20 buffer (PBS‐P, Cat no 28995084, GE Healthcare Ltd.). DMSO solvent effects were corrected for with eight calibration solutions ([…] in PBS‐P). Equilibrium constants (KD) were calculated using either kinetic or affinity models, assuming simple 1:1 (Langmuir) binding. Data processing and analysis were performed using BIAevaluation and OriginPro software. The theoretical Rmax (the maximal feasible signal between a ligand—analyte pair) for each compound/protein pair was calculated using Scheme 1 (Marquart, 2017).
The experimentally observed Rmax was then calculated as a percentage of the theoretical Rmax as a quality control measure.

NRP1 b1 [4] = target: T1, NRP1 b1; test: FP saturation binding / protein titration (dynamic range); details: for Kd: KD derived from the 50% signal maximum; for Dynamic window (mP): FP, probe + NRP1‐b1 vs probe only, probe and NRP‐b1 conc per probe as in Table 2
Protocol: Initial experiments were performed using PBS‐P buffer with 3% DMSO in a final volume of 80 μl. The reaction plates or tubes were kept on ice during pipetting.
Saturation binding: dynamic range and protein titration experiments were performed at probe concentrations selected with guidance from in‐house SPR analysis, literature KD of the untagged compound, and an FP technical resource guide (Invitrogen, 2006). The NRP‐b1 concentrations ranged from 10 nM to 30 μM.

5-Flu-RPARPAR [5] = target: 5-Flu-RPARPAR
5-Flu-RPARPAR [6] = test: SPR

Molecule: N=C(N)NCCC[C@H](NC(=O)c1sccc1NS(=O)(=O)c1cc(-c2ccc(CN)cc2)cc2c1OCC2)C(=O)O [EG01377]
- NRP1 antagonistic properties (NRP1 [1]): submicromolar
- selectivity for NRP1 over NRP2 receptor (NRP1 [1]): selective for NRP1
- IC50 (NRP1 b1 [2]): 16.8 ± 1.25 µM
- Ki (NRP1 b1 [2]): 7.39 µM

Molecule: CC(C)C[C@@H]1NC(=O)[C@H](CCC(N)=O)NC(=O)[C@H](CCCNC(=N)N)NC(=O)[C@H](C)NC(=O)[C@H](CCCCN)NC(=O)[C@@H]2CSSC[C@@H](C(=O)N[C@@H](CC(=O)O)C(=O)N[C@@H](CCCCN)C(=O)N3CCC[C@H]3C(=O)N[C@@H](CCCNC(=N)N)C(=O)N[C@@H](CCCNC(=N)N)C(=O)O)NC(=O)[C@H](CCCNC(=N)N)NC(=O)[C@H](CSSC[C@H](NC(=O)[C@@H](N)CO)C(=O)N[C@@H](CCCCN)C(=O)N[C@@H](CC(N)=O)C(=O)N[C@@H]([C@@H](C)O)C(=O)N[C@@H](CC(=O)O)C(=O)N[C@@H](CO)C(=O)N[C@@H](CCCNC(=N)N)C(=O)N2)NC(=O)[C@H]([C@@H](C)O)NC(=O)[C@H](CCCNC(=N)N)NC(=O)[C@H](CCC(=O)O)NC(=O)[C@H](CC(N)=O)NC(=O)[C@H](CC(C)C)NC(=O)[C@H](CCC(=O)O)NC1=O [EG03287] (H-SCKNTDSRCKARQLELNERTCRCDKPRR-OH; disulfide 2-21, 9-23; N-terminus and C-terminus assumed)
- IC50 (NRP1 b1 [2]): 5.77 ± 0.87 µM
- Ki (NRP1 b1 [2]): 2.47 µM
- IC50 (NRP1 [3]): 1.2 µM

Molecule: N=C(N)NCCC[C@H](NC(=O)c1sccc1NS(=O)(=O)c1cc(-c2ccc(CNC(=O)CCOCCOCCOCCNC(=O)c3ccc(-c4c5ccc(=O)cc-5oc5cc(O)ccc45)c(C(=O)O)c3)cc2)cc2c1OCC2)C(=O)O [probe 3, (S)‐5‐((1‐(4‐(7‐(N‐(2‐((1‐carboxy‐4‐guanidinobutyl)carbamoyl)thiophen‐3‐yl)sulfamoyl)‐2,3‐dihydrobenzofuran‐5‐yl)phenyl)‐3‐oxo‐6,9,12‐trioxa‐2‐azatetradecan‐14‐yl)carbamoyl)‐2‐(6‐hydroxy‐3‐oxo‐3H‐xanthen‐9‐yl)benzoic acid]
- Kd (NRP1‐b1 domain): 24.6 ± 6.3 µM
- Observed Rmax (% of theoretical) (NRP1‐b1 domain): 77%
- Kd (NRP1 b1 [4]; FP protein titration): 4.61 ± 0.19 µM
- Dynamic window (mP) (NRP1 b1 [4]): 30.7 mP

Molecule: N=C(N)NCCC[C@H](NC(=O)c1sccc1NS(=O)(=O)c1cc(-c2ccc(CNC(=O)CCOCCOCCOCCOCCOCc3cn(CCCNC(=O)c4ccc5c(c4)C(=O)OC54c5ccc(O)cc5Oc5cc(O)ccc54)nn3)cc2)cc2c1OCC2)C(=O)O [probe 4, (3‐((5‐(4‐(1‐(1‐(3‐(3′,6′‐dihydroxy‐3‐oxo‐3H‐spiro(isobenzofuran‐1,9′‐xanthene)‐5‐carboxamido)propyl)‐1H‐1,2,3‐triazol‐4‐yl)‐17‐oxo‐2,5,8,11,14‐pentaoxa‐18‐azanonadecan‐19‐yl)phenyl)‐2,3‐dihydrobenzofuran)‐7‐sulfonamido)thiophene‐2‐carbonyl)‐L‐arginine]
- Kd (NRP1‐b1 domain): 3.3 ± 0.2 µM
- Observed Rmax (% of theoretical) (NRP1‐b1 domain): 43%
- Kd (NRP1 b1 [4]; FP protein titration): 0.62 ± 0.098 µM
- Dynamic window (mP) (NRP1 b1 [4]): 5.2 mP

Molecule: RPARPAR [reference compound]
- Kd (NRP1‐b1 domain): 69 ± 22 µM
- Observed Rmax (% of theoretical) (NRP1‐b1 domain): 60.61%
- Dynamic window (mP) (NRP1 b1 [4]): 22.6 mP
- Kd (NRP1 b1 [4]; […]): 1.88 ± 1.4 µM

B1: NRP1 b1 b1 domain (protein)
chain: FKCMEALGMESGEIHSDQITASSQYSTNWSAERSRLNYPENGWTPGEDSYREWIQVDLGLLRFVTAVGTQGAISKETKKKYYVKTYKIDVSSNGEDWITIKEGNKPVLFQGNTNPTDVVVAVFPKPLITRFVRIKPATWETGISMRFEVYGCKIT
- Kd (5-Flu-RPARPAR [5]): 1.88 µM
- Kd (5-Flu-RPARPAR [6]): 69 µM
